# Data: US12084437B2, “Halo-substituted piperidines as orexin receptor modulators” (AstraZeneca AB, priority 2016, dated 2024)
# What was measured:
# [1] = target: T1, OX1 (Homo sapiens, UniProt O43613); assay: Orexin receptor cell-based functional assay, [Ca2+]i by FLIPR, CHO-OX1 cells; details: FLIPR calcium, antagonism of EC90 of [OX], read-out: OXI, IC50
# T1 construct: expressed in transfected cells; host or cells: CHO (CHO-OX1)
# T1 sequence (O43613 1-425): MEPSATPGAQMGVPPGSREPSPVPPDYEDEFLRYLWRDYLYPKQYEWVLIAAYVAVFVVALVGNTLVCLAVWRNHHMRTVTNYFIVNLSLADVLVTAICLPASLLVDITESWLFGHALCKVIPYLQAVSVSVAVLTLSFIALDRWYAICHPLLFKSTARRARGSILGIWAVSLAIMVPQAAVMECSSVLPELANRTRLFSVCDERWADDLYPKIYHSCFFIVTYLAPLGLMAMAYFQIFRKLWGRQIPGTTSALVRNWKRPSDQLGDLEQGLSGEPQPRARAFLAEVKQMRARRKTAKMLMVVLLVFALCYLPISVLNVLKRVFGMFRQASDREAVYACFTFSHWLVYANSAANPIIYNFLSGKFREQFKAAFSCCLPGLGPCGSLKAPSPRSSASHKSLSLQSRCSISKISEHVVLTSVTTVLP
# Experimental: (§1) Measurement of [Ca^2+]i using a FLIPR: CHO-OX1 or CHO-OX2 cells were seeded into black-walled clear-base 384-well plates (Corning, catalog #3712) at a density of 20,000 cells per well in F12-K medium supplemented with 10% FBS and then incubated in a 5% CO2, 37° C. incubator overnight to reach 90% confluency. The cells were incubated with equal volume of calcium6 loading buffer (Molecular Devices, Inc.) containing 2.5 mM probenecid at 37° C. for 2 h, followed by test compounds (dose-range 0.1 nM-10 μM) for another 30 min. The plates were then placed into a FLIPR (Molecular Devices, Inc.) to monitor fluorescence (λ excitation 488 nm, λ emission 540 nm) before and after the addition of EC90 of [OX].
# [2] = target: T2, OX2 (Homo sapiens, UniProt O43614); assay: Orexin receptor cell-based functional assay, [Ca2+]i by FLIPR, CHO-OX2 cells; details: FLIPR calcium, antagonism of EC90 of [OX]
# T2 construct: expressed in transfected cells; host or cells: CHO (CHO-OX2)
# T2 sequence (O43614 1-444): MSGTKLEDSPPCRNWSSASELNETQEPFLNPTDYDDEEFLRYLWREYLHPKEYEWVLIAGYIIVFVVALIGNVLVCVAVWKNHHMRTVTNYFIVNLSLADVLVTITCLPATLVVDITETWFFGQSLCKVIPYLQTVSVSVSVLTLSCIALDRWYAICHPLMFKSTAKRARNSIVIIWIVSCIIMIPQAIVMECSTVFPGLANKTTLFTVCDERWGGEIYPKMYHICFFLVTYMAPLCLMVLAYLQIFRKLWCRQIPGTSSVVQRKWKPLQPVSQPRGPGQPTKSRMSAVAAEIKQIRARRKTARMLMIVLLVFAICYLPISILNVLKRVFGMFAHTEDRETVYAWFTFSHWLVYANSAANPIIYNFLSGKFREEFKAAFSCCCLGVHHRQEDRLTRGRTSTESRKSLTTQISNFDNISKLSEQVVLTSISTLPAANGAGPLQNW
# Experimental: as §1, with “[OX]. Results for exemplary compounds of Formulae (I), (Ia), (Ib), (II), (IIa), (III), (IIIa), (IV), (IVa), (V), or (Va) are shown in Table 3.” for “[OX].”
SMILES,IC50 [1] [nM],IC50 [2] [nM]
Cc1ccc(-c2sc(C)nc2C(=O)N2CC(F)(F)C[C@@H](C)[C@H]2CNc2ccc(C(F)(F)F)cn2)cc1 [Compound 186],6,> 5000
Cc1ccnc(-c2sc(C)nc2C(=O)N2CC(F)(F)C[C@@H](C)[C@H]2CNc2cnc(C(F)(F)F)cn2)c1 [Compound 147],5,> 5000
Cc1nc(C(=O)N2CC(F)(F)C[C@@H](C)[C@H]2CNc2cnc(C(F)(F)F)cn2)c(-c2cccnc2)o1 [Compound 156],> 1000,> 5000
"C[C@@H]1CC(F)(F)CN(C(=O)c2nn(C)cc2-c2ccc(Cl)cn2)[C@@H]1CNc1ncc(C(F)(F)F)cn1 [Compound 221, (4-(5-chloropyridin-2-yl)-1-methyl-1H-pyrazol-3-yl)((2S,3R)-5,5-difluoro-3-methyl-2-(((5-(trifluoromethyl)pyrimidin-2-yl)amino)methyl)piperidin-1-yl)methanone]",2,> 5000
"CCc1cnc(NC[C@@H]2[C@H](C)CC(F)(F)CN2C(=O)c2nc(C)sc2-c2ccc(F)cc2)nc1 [Compound 239, ((2S,3R)-2-(((5-ethylpyrimidin-2-yl)amino)methyl)-5,5-difluoro-3-methylpiperidin-1-yl)(5-(4-fluorophenyl)-2-methylthiazol-4-yl)methanone]",29,> 5000
"Cc1ccc(-c2cn(C)nc2C(=O)N2CC(F)(F)C[C@@H](C)[C@H]2COc2ccc(C(F)(F)F)cn2)nc1 [Compound 206, ((2S,3R)-5,5-difluoro-3-methyl-2-(((5-(trifluoromethyl)pyridin-2-yl)oxy)methyl)piperidin-1-yl)(1-methyl-4-(5-methylpyridin-2-yl)-1H-pyrazol-3-yl)methanone]",22,–
"C[C@@H]1CC(F)(F)CN(C(=O)c2nn(C)cc2-c2ncccn2)[C@@H]1CNc1ncc(C(F)(F)F)cn1 [Compound 97, ((2S,3R)-5,5-difluoro-3-methyl-2-(((5-(trifluoromethyl)pyrimidin-2-yl)amino)methyl)piperidin-1-yl)(1-methyl-4-(pyrimidin-2-yl)-1H-pyrazol-3-yl)methanone]",12,> 5000
Cc1nc(C(=O)N2CC(F)(F)C[C@@H](C)[C@H]2CNc2ncc(C(F)(F)F)cn2)c(-c2ncccn2)s1 [Compound 49],6,> 5000
Cc1nc(C(=O)N2CC(F)(F)C[C@@H](C)[C@H]2CNc2ncc(C(F)(F)F)cn2)c(-c2ccc(F)cn2)s1 [Compound 72],237,> 5000
"C[C@@H]1CC(F)(F)CN(C(=O)c2nn(CC(F)(F)F)cc2-c2ncccn2)[C@@H]1CNc1ncc(C(F)(F)F)cn1 [Compound 238, ((2S,3R)-5,5-difluoro-3-methyl-2-(((5-(trifluoromethyl)pyrimidin-2-yl)amino)methyl)piperidin-1-yl)(4-(pyrimidin-2-yl)-1-(2,2,2-trifluoroethyl)-1H-pyrazol-3-yl)methanone]",> 2000,> 5000
Cc1nc(C(=O)N2CC(F)(F)C[C@@H](C)[C@H]2CNc2ncc(C(F)(F)F)cn2)c(-c2ccccc2)s1 [Compound 65],2,> 5000
C[C@@H]1CC(F)(F)CN(C(=O)c2nn(C)cc2-c2ncc(F)cn2)[C@@H]1COc1ncc(C(F)(F)F)cc1F [Compound 245],–,> 5000
COc1ccc(-c2sc(C)nc2C(=O)N2CC(F)(F)C[C@@H](C)[C@H]2CNc2cnc(C(F)(F)F)cn2)cc1 [Compound 141],6,–

# More lines, now with the values ahead:
IC50 [1] [nM],IC50 [2] [nM],SMILES
4,> 5000,Cc1cccc(-c2sc(C)nc2C(=O)N2CC(F)(F)C[C@@H](C)[C@H]2CNc2ncc(C(F)(F)F)cn2)n1 [Compound 77]
8,> 5000,"Cc1nc(C(=O)N2CC(F)(F)C[C@@H](C)[C@H]2CNc2ncc(C(F)(F)F)cn2)c(-c2ccc(F)cc2)s1 [Compound 68, ((2S,3R)-5,5-difluoro-3-methyl-2-(((5-(trifluoromethyl)pyrimidin-2-yl)amino)methyl)piperidin-1-yl)(5-(4-fluorophenyl)-2-methylthiazol-4-yl)methanone]"
24,> 5000,Cc1cc(C(=O)N2CC(F)(F)C[C@@H](C)[C@H]2CNc2ncc(Cl)cn2)c(-c2ccccn2)s1 [Compound 92]
350,> 5000,"C[C@@H]1CC(F)(F)CN(C(=O)c2nn(C)cc2-c2ncc(C(F)(F)F)cn2)[C@@H]1CNc1ncc(C(F)(F)F)cn1 [Compound 226, ((2S,3R)-5,5-difluoro-3-methyl-2-(((5-(trifluoromethyl)pyrimidin-2-yl)amino)methyl)piperidin-1-yl)(1-methyl-4-(5-(trifluoromethyl)pyrimidin-2-yl)-1H-pyrazol-3-yl)methanone]"
11,> 5000,Cc1ccc(-c2cn(C)nc2C(=O)N2CC(F)(F)C[C@@H](C)[C@H]2CNc2cnc(C(F)(F)F)cn2)nc1 [Compound 133]
4,> 5000,Cc1ccc(-c2ccccc2)c(C(=O)N2CC(F)(F)C[C@@H](C)[C@H]2CNc2ncc(C(F)(F)F)cn2)n1 [Compound 51]
–,> 5000,C[C@@H]1CC(F)(F)CN(C(=O)c2nn(C)cc2-c2ncc(F)cn2)[C@@H]1COc1cnc(C(F)(F)F)cn1 [Compound 244]
10,> 5000,Cc1ccc(-n2nccn2)c(C(=O)N2CC(F)(F)C[C@@H](C)[C@H]2CNc2ncc(C(F)(F)F)cn2)c1 [Compound 5]
27,> 5000,Cc1ccc(-n2nccn2)c(C(=O)N2CC(F)(F)C[C@@H](C)[C@H]2CNc2cnc(C(F)(F)F)cn2)n1 [Compound 153]
8,> 5000,C[C@@H]1CC(F)(F)CN(C(=O)c2cc(Cl)ccc2-n2nccn2)[C@@H]1CNc1ncc(Cl)cn1 [Compound 11]
7,> 5000,"C[C@@H]1CC(F)(F)CN(C(=O)c2nn(C)cc2-c2ncc(Cl)cn2)[C@@H]1CNc1ncc(C(F)(F)F)cn1 [Compound 218, (4-(5-chloropyrimidin-2-yl)-1-methyl-1H-pyrazol-3-yl)((2S,3R)-5,5-difluoro-3-methyl-2-(((5-(trifluoromethyl)pyrimidin-2-yl)amino)methyl)piperidin-1-yl)methanone]"
–,> 5000,C[C@@H]1CC(F)(F)CN(C(=O)c2nn(C)cc2-c2ccccc2F)[C@@H]1CNc1ncc(C(F)(F)F)cn1 [Compound 23]
–,> 5000,Cc1ccc(-c2sc(C)nc2C(=O)N2CC(F)(F)C[C@@H](C)[C@H]2CNc2ccc(C(F)(F)F)cn2)nc1 [Compound 197]
–,> 5000,Cc1nc(C(=O)N2CC(F)(F)C[C@@H](C)[C@H]2CNc2cnc(C(F)(F)F)cn2)c(-c2cc(F)ccn2)s1 [Compound 150]
5,–,Cc1nc(C(=O)N2CC(F)(F)C[C@@H](C)[C@H]2CNc2cnc(C(F)(F)F)cn2)c(-c2ccc(F)cc2)s1 [Compound 137]
–,> 5000,C[C@@H]1CC(F)(F)CN(C(=O)c2nn(C)cc2-c2ccc(F)cc2)[C@@H]1CNc1ncc(C(F)(F)F)cn1 [Compound 30]
–,> 5000,Cc1cccc(-c2sc(C)nc2C(=O)N2CC(F)(F)C[C@@H](C)[C@H]2CNc2ncc(C(F)(F)F)cn2)c1 [Compound 63]
17,–,C[C@@H]1CC(F)(F)CN(C(=O)c2cc(Cl)ccc2-c2nnn(C)n2)[C@@H]1CNc1ccc(C(F)(F)F)cn1 [Compound 182]
